Data from US4835156A, “Vasodilatory dihydrodibenzocycloheptyliden-ethyl piperazine derivatives and process for the preparation of these compounds” (Sociedad Espanola De Especialidades Terepeuticas, S.A., priority 1983, dated 1989).

Experiments:
[1] = test system: Rat hind-quarters; assay: Vasodilatory activity, isolated rat hind-quarters (antagonism of vasoconstriction by hyperkalaemic Tyrode solution); settings: crosses relative to standard drugs cinnarizine and flunarizine;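 also: four crosses equal an effect comparable to the standard drug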
Source text: (§1) The significance of the symbols is as follows:
In order to test the vasodilatory activity, the first trial employs the technique of the isolated rat hind-quarters (Table 2), which involves antagonizing the vasoconstrictive effect of perfusion of hyperkalaemic Tyrode solution, according to the method of F. N. Fastier and F. H. Smirk (J. Pharm. Exp. Therap. 89, […] (1947)), and then calculating for the products which show the greatest activity, the ED30, that is the dose which produces a 30% vasodilatory activity with respect to the basic vasoconstriction.

[2] = Toxicity, indicative LD50, intraperitoneal; settings: mouse, in vivo, ip, Swiss mice, 7 days post-administration
Protocol: Table 4 sets forth the results of the indicative LD50 for the most representative of the compounds according to the present invention.
The compounds are administered by the intraperitoneal route to Swiss mice, after which the toxic effects are observed, and the mortality rate and the LD50 7 days post-administration are calculated.

[3] = test system: Rabbit cerebral territory; assay: Vasodilation in perfused rabbit cerebral territory (variation in perfusion pressure); type: in vivo; settings: for Vasodilatory Index: % vasodilation multiplied by duration of action; for Vasodilatory Activity (Rabbit cerebral territory) Evaluation: crosses relative to standard cinnarizine;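 as to Vasodilatory Activity (Rabbit cerebral territory) Evaluation: four crosses equal an effect comparable to the standard drug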
Protocol: as §1
In a further trial, the vasodilatory activity is evaluated by the technique of vasodilation in perfused rabbit cerebral territory as described by P. Vaupel and H. Hutten (Arzneim. Forsch./Drug Res. 30(I), 598-602 (1980)), calculating the variation in perfusion pressure after treatment (Table 3).
Table 3 employs the same conventional signs based on crosses, with the same relative significance as in Table 2.

SMILES	Vasodilatory Activity (Rat hind-quarters) Evaluation [1]	LD50 at 168 h [2] [mg/kg]	Vasodilatory Index [3] [mm^2]	Vasodilatory Activity (Rabbit cerebral territory) Evaluation [3]
Fc1ccc(C(c2ccc(F)cc2)N2CCN(C/C=C/c3ccccc3)CC2)cc1 [Flunarizine, reference compound]	++++	–	–	–
C(CN1CCN(Cc2ccccc2)CC1)=C1c2ccccc2CCc2ccccc21 [WAS-4206, N-benzyl-N'-2-(10,11-dihydrodibenzo-(a,d)-cyclohept-5-yliden)-ethyl piperazine]	++++	880	285.3	++
C(=Cc1ccccc1)CN1CCN(CC=C2c3ccccc3CCc3ccccc32)CC1 [WAS-4207]	++++	925	16.2	0
C(CN1CCN(Cc2ccncc2)CC1)=C1c2ccccc2CCc2ccccc21 [WAS-4220]	0	185	1159.2	++++
C(CN1CCN(Cc2ccco2)CC1)=C1c2ccccc2CCc2ccccc21 [WAS-4221]	0	185	321.4	+++
O=C(CN1CCN(CC=C2c3ccccc3CCc3ccccc32)CC1)N1CCOCC1 [WAS-4222]	+	185	454.6	++++
O=C(CN1CCN(CC=C2c3ccccc3CCc3ccccc32)CC1)N1CCCCC1 [WAS-4223]	0	185	1133.6	++++
O=C(CN1CCN(CC=C2c3ccccc3CCc3ccccc32)CC1)N1CCCC1 [WAS-4224]	0	385	342.0	+++
C=CCN1CCN(CC=C2c3ccccc3CCc3ccccc32)CC1 [WAS-4225]	++++	175	0	0
C(CN1CCN(Cc2cccs2)CC1)=C1c2ccccc2CCc2ccccc21 [WAS-4226, N-2-(10,11-dihydrodibenzo-(a,d)-cyclohept-5-yliden)-ethyl-N'-(2-thenyl)-piperazine]	0	385	74.0	0
C(CN1CCN(Cc2cccnc2)CC1)=C1c2ccccc2CCc2ccccc21 [WAS-4227]	+	175	253.7	++
OCCN1CCN(CC=C2c3ccccc3CCc3ccccc32)CC1 [WAS-4229]	0	115	55.6	0
CCOC(=O)CN1CCN(CC=C2c3ccccc3CCc3ccccc32)CC1 [WAS-4231]	++	175	0	0
C(CN1CCN(Cc2ccccn2)CC1)=C1c2ccccc2CCc2ccccc21 [WAS-4232]	++	115	46.8	0
O=C(O)CN1CCN(CC=C2c3ccccc3CCc3ccccc32)CC1 [WAS-4233]	0	900	0	0
C(CN1CCN(Cc2ccc3c(c2)OCO3)CC1)=C1c2ccccc2CCc2ccccc21 [WAS-4234]	0	600	0	0
COC(=O)C=CCN1CCN(CC=C2c3ccccc3CCc3ccccc32)CC1 [WAS-4237]	++++	3000	19.6	0
O=C(CN1CCN(CC=C2c3ccccc3CCc3ccccc32)CC1)NC12CC3CC(CC(C3)C1)C2 [WAS-4239]	++	340	0	0
O=C(CN1CCN(CC=C2c3ccccc3CCc3ccccc32)CC1)NC(=O)NCN1CCOCC1 [WAS-4601]	++++	125	180.8	+
O=C(CN1CCN(CC=C2c3ccccc3CCc3ccccc32)CC1)c1ccccc1 [WAS-4602]	0	200	378.3	+++
COC(=O)c1cc(CN2CCN(CC=C3c4ccccc4CCc4ccccc43)CC2)ccc1O [WAS-4604]	+	900	20.0	0
O=C(C=CCN1CCN(CC=C2c3ccccc3CCc3ccccc32)CC1)c1ccccc1 [WAS-4605]	++++	115	420.9	++++
